Key:
[1] = biological target: T1, Tryptase beta-1 (Homo sapiens, UniProt Q15661); test: Binding affinity to human tryptase beta2
[2] = biological target: Trypsin (Homo sapiens, UniProt P07477+P07478+P35030); test: Binding affinity to trypsin; format: protein assay
[3] = Binding affinity to elastase; parameters: species or system Homo sapiens
[4] = Cmax in iv or po dosed rat; format: ADME, organism-based; conditions: in vivo
[5] = Clearance in iv or po dosed rat; format: ADME, organism-based; conditions: in vivo
[6] = Volume of distribution in iv or po dosed rat; format: ADME, organism-based; conditions: in vivo, read-out: Vc
[7] = biological target: T2, Tryptase (Mus musculus, UniProt Q02844); test: Binding affinity to mouse tryptase
T2 sequence (Q02844 whole entry): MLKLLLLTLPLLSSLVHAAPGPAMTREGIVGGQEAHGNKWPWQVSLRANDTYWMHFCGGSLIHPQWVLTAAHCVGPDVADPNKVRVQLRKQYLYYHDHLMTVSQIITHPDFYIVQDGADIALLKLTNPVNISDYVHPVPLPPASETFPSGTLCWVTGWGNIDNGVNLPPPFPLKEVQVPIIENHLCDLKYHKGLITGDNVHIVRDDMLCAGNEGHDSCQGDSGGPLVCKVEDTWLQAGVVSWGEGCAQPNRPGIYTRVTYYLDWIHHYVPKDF

[8] = biological target: T3, Tryptase (Rattus norvegicus, UniProt P27435); test: Binding affinity to rat tryptase
T3 sequence (P27435 whole entry): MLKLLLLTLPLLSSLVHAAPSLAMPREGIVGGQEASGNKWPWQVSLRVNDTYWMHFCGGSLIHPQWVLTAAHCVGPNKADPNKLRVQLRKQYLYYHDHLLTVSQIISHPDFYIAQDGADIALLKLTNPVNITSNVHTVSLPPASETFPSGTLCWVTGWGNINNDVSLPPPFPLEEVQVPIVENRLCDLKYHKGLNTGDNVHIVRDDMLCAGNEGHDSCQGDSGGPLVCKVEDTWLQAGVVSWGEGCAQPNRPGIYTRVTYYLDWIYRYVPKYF

[9] = biological target: T1, Tryptase beta-1; test: Binding affinity to recombinant cynomolgus monkey tryptase
[10] = biological target: Tryptase (Canis lupus familiaris, UniProt P15944); test: Binding affinity to dog tryptase
[11] = Mean residence time in iv or po dosed rat; format: ADME, organism-based; conditions: in vivo, read-out: Vdss
[12] = AUC in iv or po dosed rat; format: ADME, organism-based; conditions: plasma
[13] = Oral absorption in iv or po dosed rat; format: ADME, organism-based; conditions: in vivo
[14] = Oral bioavailability in iv or po dosed rat; format: ADME, organism-based; conditions: in vivo
[15] = Bioavailability in ip dosed mouse; format: ADME, organism-based; conditions: in vivo

T1 sequence (Q15661 whole entry): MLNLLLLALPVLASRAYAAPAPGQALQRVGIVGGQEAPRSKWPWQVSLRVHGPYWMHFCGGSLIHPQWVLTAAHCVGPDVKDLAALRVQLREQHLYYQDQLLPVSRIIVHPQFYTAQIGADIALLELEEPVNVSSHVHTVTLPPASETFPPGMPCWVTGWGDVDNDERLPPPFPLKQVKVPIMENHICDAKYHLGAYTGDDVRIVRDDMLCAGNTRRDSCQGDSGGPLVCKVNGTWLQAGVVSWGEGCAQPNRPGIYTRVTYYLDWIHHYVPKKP
Sequence of Tryptase (Canis lupus familiaris, UniProt P15944) (P15944 whole entry): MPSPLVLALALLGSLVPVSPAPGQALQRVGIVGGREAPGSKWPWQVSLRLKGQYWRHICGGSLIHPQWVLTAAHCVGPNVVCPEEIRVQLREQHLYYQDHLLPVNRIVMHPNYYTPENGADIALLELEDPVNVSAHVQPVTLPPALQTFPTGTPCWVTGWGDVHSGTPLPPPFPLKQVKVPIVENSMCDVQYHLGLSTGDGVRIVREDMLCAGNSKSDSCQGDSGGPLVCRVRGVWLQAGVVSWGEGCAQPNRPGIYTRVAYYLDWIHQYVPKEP

Ki [1] | Ki app [2] | SMILES | other results
13 nM | 190 nM | NCCCC[C@H](NC(=O)OCc1ccccc1)C(=O)c1noc(Cc2ccc(OCCc3cccc(Cl)c3)cc2)n1 | 
25 nM | 41 nM | NCCCC[C@H](NC(=O)OCc1ccccc1)C(=O)c1noc(Cc2ccc(OCCCc3ccccc3)cc2)n1 | 
78 nM | 95 nM | NCCCC[C@H](NC(=O)OCc1ccccc1)C(=O)c1noc(Cc2ccc(OCCc3cccc4ccccc34)cc2)n1 | 
19 nM | 34 nM | COc1ccc(CCOc2ccc(Cc3nc(C(=O)[C@H](CCCCN)NC(=O)OCc4ccccc4)no3)cc2)cc1 | 
16 nM | 110 nM | NCCCC[C@H](NC(=O)OCc1ccccc1)C(=O)c1noc(Cc2ccc(OCCc3ccc(F)cc3)cc2)n1 | 
14 nM | 270 nM | NCCCC[C@H](NC(=O)OCc1ccccc1)C(=O)c1noc(Cc2ccc(OCCc3ccc(Cl)cc3)cc2)n1 | 
41 nM | 59 nM | COc1cccc(CCOc2ccc(Cc3nc(C(=O)[C@H](CCCCN)NC(=O)OCc4ccccc4)no3)cc2)c1 | 
27 nM | 140 nM | NCCCC[C@H](NC(=O)OCc1ccccc1)C(=O)c1noc(Cc2ccc(OCCc3ccc4ccccc4c3)cc2)n1 | 
 | 35 nM | NCCCC[C@H](NC(=O)OCc1ccccc1)C(=O)c1noc(Cc2ccc(OCCc3ccccc3)cc2)n1 | 

More lines, now with the values behind:

SMILES | Ki [1] | Ki app [2] | other results
NCCCC[C@H](NC(=O)OCc1ccccc1)C(=O)c1noc(Cc2ccc(OCc3ccccc3)cc2)n1 | 180 nM | 24 nM | 
COc1ccc(CCOc2ccc(Cc3nc(C(=O)[C@H](CCCCN)NC(=O)OCc4ccccc4)no3)cc2)cc1OC | 24 nM | 11 nM | 
NCCCC[C@H](NC(=O)OCc1ccccc1)C(=O)c1noc(Cc2ccc(OCCC3CCCCC3)cc2)n1 | 1100 nM | 1000 nM | 
CCOC(=O)N[C@@H](CCCCN)C(=O)c1noc(Cc2ccc(OCCc3ccccc3)cc2)n1 |  |  | Ki [3]: > 150000 nM; Cmax [4]: 590 nM; clearance [5]: 93 mL/min/kg; Vd [6]: 0.91 L/kg; Ki [7]: 43.5 nM; Ki [8]: 5.5 nM; Ki [9]: 46.5 nM; Ki [10]: 380 nM; Vd [11]: 7 L/kg; AUC [12]: 0.183 µM·h; Fa [13]: 18%; bioavailability [14]: 8.4%; bioavailability [15]: 68%
NCCCC[C@H](NC(=O)OCc1ccccc1)C(=O)c1noc(Cc2ccc(OCCc3ccc(Cl)c(Cl)c3)cc2)n1 | 10 nM | 280 nM | 
NCCCC[C@H](NC(=O)OCc1ccccc1)C(=O)c1noc(Cc2cccc(OCCCc3ccccc3)c2)n1 | 120 nM | 92 nM | 
NCCC[C@H](NC(=O)OCc1ccccc1)C(=O)c1noc(Cc2ccccc2)n1 | 2700 nM | 68 nM | 
NCCCC[C@H](NC(=O)OCc1ccccc1)C(=O)c1noc(Cc2ccc(OCCc3ccc(Cl)cc3Cl)cc2)n1 | 96 nM | 410 nM | 
NCCCC[C@H](NC(=O)OCc1ccccc1)C(=O)c1noc(Cc2cccc(OCCc3ccccc3)c2)n1 | 360 nM | 82 nM | 
